Results: US20240199455A1, “REMOVAL OF TOXIC OXYANIONS BY CO-CRYSTALLIZATION WITH SULFATE” (UT-Battelle, LLC, priority 2022, published 2024)

What was measured:
[1] = Cocrystallization from simulated Bull Run groundwater
Procedure: (§1) In a typical experiment, BIG chloride was added to wastewater containing sulfate, selenate, and/or selenite anions, and immediately upon addition, a white precipitate formed. The resulting suspensions were mixed for 24 h using a rotator set at 60 rpm inside an incubator set to 25 C. The samples were then removed and centrifuged for 10 min at 3000 rpm to separate the aqueous and solid phases. In the field, the suspended solids were filtered through a filter press. A 1 mL aliquot was then removed from each sample and passed through a 0.02 μm syringe filter to ensure any suspended solid was removed from the filtrate prior to diluting the samples in 2% HNO3 for ICP-MS analysis. To recover the BIG ligand, 2.1 equiv. of NaOH (or adjusted to a pH of 11) was added to a suspension of the BIG-oxyanion salts in a 15 mL polypropylene centrifuge tube. The suspension was mixed for 24 h at 60 rpm. The suspended BIG neutral solid was filtered from the supernatant solutions containing the oxyanions dissolved as soluble sodium salts. The BIG chloride salts were then regenerated by the addition of 0.1 M HCl to the neutral ligands. This process is depicted schematically in FIG. 5.
The efficacies of sulfate and selenate removal with BBIG and PyBIG ligands were next tested with simulated wastewater to determine if the EPA's 5 ppb discharge limit was achievable. The initial concentrations of sulfate and selenate in the simulated wastewater were based on typical values found in groundwaters monitored at the Bull Run steam plant of Tennessee Valley Authority (TVA). The simulated Bull Run groundwater contained an 8985-fold excess concentration of sulfate relative to selenate, with sulfate and selenate concentrations of 5.84±0.11 mM and 0.65±0.07 μM, respectively. Cocrystallization studies were performed with 1 and 2 mol equiv of BBIG or PyBIG. […] On the other hand, selenate removal was near quantitative with 2 equiv of BBIG (FIG. 4a).

[2] = Crystallization at constant 2.5 mM sulfate and decreasing selenate (2.5 mM to 2.5 μM); settings: 2.5 mM sulfate
Procedure: as §1
Crystallization experiments were carried out keeping sulfate at a constant concentration and decreasing the selenate concentration while maintaining constant ionic strength to mimic wastewater conditions. These experiments were carried out at 1 and 2 molar equivalents of BBIG or PyBIG. […] At lower selenate concentrations of 250, 25, and 2.5 μM, there is no discernible preference between the oxyanions. […] At the lowest concentration of selenate, the amount remaining in solution after crystallization is below the limit of detection of 0.02 ppb Se. The same trend is observed for PyBIG, with near quantitative removal of both sulfate and selenate.

[3] = Cocrystallization from equimolar sulfate/selenate mixture (2.5 mM each); settings: for selenate removal / sulfate removal: 2.5 mM sulfate + 2.5 mM selenate; for ratio of sulfate to selenate % removal: equimolar mixture
Procedure: as §1
Concomitant crystallization of sulfate and selenate with either BBIG or PyBIG led to near quantitative removal of both oxyanions from equimolar aqueous mixtures. Cocrystallization experiments were carried out keeping the concentration of sulfate and selenate at near equimolar concentrations of 2.5 mM, while the BIG concentrations were increased gradually from 5 to 50 mM. […] At higher BBIG concentrations, the oxyanion removal remained near quantitative. Referring to the ratio of sulfate to selenate % removal, a ratio of 1.0 indicates there is no preference for sulfate over selenate. […] At relative ligand concentrations higher than 1 equivalent of BBIG, the ratio of removal efficiencies approaches 1, indicating no preference between the two oxyanions by crystallization under these conditions.
PyDIG also quantitatively removed sulfate and selenate at higher BIG concentrations. […] Increasing the PyBIG concentration achieved a ratio of approximately 1, indicating no discrimination between sulfate and selenate with excess PyBIG. With both BBIG and PyBIG, it appears the 2:1 BIG:oxyanions ratio is ideal for effectively removing SO4^2− and SeO4^2− anions from solution with minimal excess of the BIG ligands.

[4] = Crystallization of individual oxyanion (5 mM) with BIG chloride, ICP-MS of filtrate; settings: for selenate removal efficiency: 5 mM selenate alone; for sulfate removal efficiency: 5 mM sulfate alone
Procedure: as §1
Crystallization studies with BBIG and individual sulfate, selenate, or selenite anions (5 mM) were performed, while the concentration of BIGs was increased from one to ten molar equivalents. […] On the other hand, only approximately half (53.0%, FIG. 2a) of the selenite was removed from the solution with 1 equivalent of BBIG, which can be attributed to its propensity to form HScO3^−, by deprotonating BBIG in the process. […] Once again, selenite was removed to a lesser extent (70.7%) with 1 equivalent of PyBIG (FIG. 2b).

[5] = Cocrystallization from simulated Bull Run leachate
Procedure: as §1
A more concentrated simulated wastewater solution based on Bull Run's leachate water that has leached from fly ash beds was also tested with BBIG and PyBIG. The concentrations of sulfate and selenate in the simulated leachate were 48.49±0.7 mM and 2.37±0.16 μM, respectively, with sulfate concentration being 20,460 times higher than that of selenate. In the case of BBIG, 1 equiv removed 96.3% and 95.4% sulfate and selenate, respectively, while 2 equiv removed sulfate and selenate near quantitatively at 99.90% and 99.94%, respectively, with a final Se concentration of 8.59±0.62 ppb (1 equiv) and 0.20±0.01 ppb (2 equiv). In the case of PyBIG, 89.2% and 85.5% sulfate and selenate, respectively, were removed with 1 equiv, and 99.98% and 99.99%, respectively with 2 equiv. The final Se concentrations after cocrystallization with PyBIG were 27.23±0.92 ppb (1 equiv) and 0.02±0.01 ppb (2 equiv), reaching the limit of detection. […] In fact, the large excess of sulfate present in the wastewaters appears to help remove trace amounts of selenate by cocrystallization with BBIG or PyBIG, down to sub-ppb levels of Se.

[6] = simulated groundwater (5.84 mM sulfate, 0.65 μM selenate), 1 equiv BIG
[7] = simulated groundwater, 2 equiv BIG
[8] = 1 molar equivalent BIG relative to total oxyanion
[9] = BIG increased to 2 equivalents (PyBIG: increased concentration, plateau after 2 equivalents)
[10] = BIG at twice the oxyanion concentration (10 mM)
[11] = simulated leachate (48.49 mM sulfate, 2.37 μM selenate), 1 equiv BIG
[12] = simulated leachate, 2 equiv BIG

## N=C(N)N/N=C/c1cccc(/C=N/NC(=N)N)n1 [PyBIG, pyridinedialdehydebis(iminoguanidinium)]
[1]; [6]
  selenate removal: 81.6%
  sulfate removal: 88.5%
[1]; simulated groundwater, 1 equiv BIG
  final Se concentration: 9.39±0.34 ppb
[1]; [7]
  final Se concentration: 0.02±0.01 ppb
  selenate removal: 99.96%
  sulfate removal: 99.94%
[2]; 1 equiv BIG
  selenate removal: 75.6%
  sulfate removal: 82.3%
[2]; 2 equiv BIG
  selenate removal: > 99.7%
  sulfate removal: > 99.7%
[3]; [8]
  selenate removal: 75.6%
  sulfate removal: 82.3%
[3]; [9]
  selenate removal: 99.7%
  sulfate removal: 97.8%
[3]; 1 equivalent BIG, 1.0 = no preference
  ratio of sulfate to selenate % removal: 0.84
[3]; more than 1 equivalent (excess) BIG
  ratio of sulfate to selenate % removal: approximately 1
[4]; 5 mM (1 equiv) BIG
  selenate removal efficiency: 93.9%
[4]; [10]
  selenate removal efficiency: 99.8%
  sulfate removal efficiency: 99.9%
[4]; 5 mM selenite alone, 1 equivalent BIG
  selenite removal efficiency: 70.7%
[4]; 5 mM (1 equiv) BIG, 24 h, 25 C
  sulfate removal efficiency: 95.0%
[5]; simulated groundwater and leachate
  sulfate-to-selenate removal ratio: approximately one
[5]; [11]
  selenate removal: 85.5%
  sulfate removal: 89.2%
[5]; simulated leachate, 1 equiv BIG
  final Se concentration: 27.23±0.92 ppb
[5]; [12]
  final Se concentration: 0.02±0.01 ppb
  selenate removal: 99.99%
  sulfate removal: 99.98%
